Results published in ChEMBL document CHEMBL3272277, “Stereocontrolled glycosidation of daunomycinone. Synthesis and biological evaluation of 6-hydroxy-L-arabino analogues of antitumor anthracyclines” (J Med Chem, 1976).
≈ marks a conversion by molar mass, not a printed value.

Experiments:
[1] = system: MEF; test: Inhibition of Murine sarcoma virus (Moloney) foci formation in MEF after 72 hrs; type: functional; details: Mus musculus, read-out: ID50 (the source's name)
[2] = system: Sarcoma-180; test: Antitumor activity against mouse Sarcoma 180 cells allografted in mouse assessed as average survival time at 10 mg/kg, ip on day 1 post challenge relative to untreated control; type: functional; details: route intraperitoneal
[3] = system: Mus musculus; test: Toxicity in mouse allografted with mouse Sarcoma 180 cells assessed as mortality at 10 mg/kg, ip on day 1 post challenge; type: organism-based; set-up: dose 10 mg/kg, route intraperitoneal; details: in vivo
[4] = Antiproliferative activity against MEF after 72 hrs; type: cell-based; details: mouse, MEF cells; read-out: ID50
[5] = system: HeLa; test: Cytotoxicity against human HeLa cells assessed as cloning efficiency after 8 hrs; type: functional; details: read-out: ID50 (the source's name)
[6] = system: Mus musculus; test: Toxicity in mouse allografted with mouse Sarcoma 180 cells assessed as mortality at 2 mg/kg, ip on day 1 post challenge; type: organism-based; set-up: dose 2 mg/kg, route intraperitoneal; details: in vivo
[7] = system: Mus musculus; test: Toxicity in mouse allografted with mouse Sarcoma 180 cells assessed as mortality at >5 mg/kg, ip on day 1 post challenge; type: organism-based; details: in vivo
[8] = system: Sarcoma-180; test: Antitumor activity against mouse Sarcoma 180 cells allografted in mouse assessed as average survival time at 2 mg/kg, ip on day 1 post challenge relative to untreated control; type: functional; details: route intraperitoneal

SMILES | IC50 [1] [µg/mL] | T/C [2] [%] | Activity [3] | GI50 at 72 h [4] [µg/mL] | IC50 [5] [µg/mL] | Activity [6] | Activity [7] | T/C [8] [%]
COc1cccc2c1C(=O)c1c(O)c3c(c(O)c1C2=O)C[C@@](O)(C(C)=O)C[C@@H]3O[C@H]1C[C@H](N)[C@@H](O)[C@H](CO)O1.Cl | 0.1 | 167 | Non-toxic | 0.256 | > 10 | Non-toxic |  | 
COc1cccc2c1C(=O)c1c(O)c3c(c(O)c1C2=O)C[C@@](O)(C(=O)CO)C[C@@H]3O[C@H]1C[C@H](N)[C@@H](O)[C@H](C)O1 [EPIRUBICIN] |  |  |  |  |  |  | Toxic | 
COc1cccc2c1C(=O)c1c(O)c3c(c(O)c1C2=O)C[C@@](O)(C(C)=O)C[C@@H]3O[C@H]1C[C@H](N)[C@H](O)[C@H](C)O1 [DAUNORUBICIN] | 0.0055 (≈ 0.0104 µM) |  |  | 0.009 (≈ 0.0171 µM) | 0.013 (≈ 0.0246 µM) |  |  | 192
COc1cccc2c1C(=O)c1c(O)c3c(c(O)c1C2=O)C[C@@](O)(C(C)=O)C[C@@H]3O[C@H]1C[C@H](N)[C@@H](O)[C@H](C)O1 |  |  |  |  |  |  | Toxic | 
COc1cccc2c1C(=O)c1c(O)c3c(c(O)c1C2=O)C[C@@](O)(C(=O)CO)C[C@@H]3O[C@H]1C[C@H](N)[C@@H](O)[C@H](CO)O1 | 0.025 (≈ 0.0447 µM) | 162 | Non-toxic | 0.05 (≈ 0.0894 µM) | 1 (≈ 1.79 µM) | Non-toxic |  | 
COc1cccc2c1C(=O)c1c(O)c3c(c(O)c1C2=O)C[C@@](O)(C(=O)CO)C[C@@H]3O[C@H]1C[C@H](N)[C@H](O)[C@H](C)O1.Cl [DOXORUBICIN HYDROCHLORIDE] | 0.0025 |  |  | 0.007 | 0.11 |  |  | 210
